According to ChEMBL document CHEMBL3785084, “Rational modification of the lead molecule: Enhancement in the anticancer and dihydrofolate reductase inhibitory activity” (Bioorg Med Chem Lett, 2016):
pIC50: −log10 of the molar value. Calls of active or inactive are those of the source. No cut-off for these calls is given here.

What was measured:
[1] = test system: CCRF-CEM; settings: Homo sapiens, 10^-5 M
Description: Cytotoxicity against human CCRF-CEM cells assessed as tumor growth inhibition at 10^-5 M after 48 hrs by sulforhodamine B assay

[2] = test system: HL-60(TB); settings: Homo sapiens, 10^-5 M
Description: Cytotoxicity against human HL-60(TB) cells assessed as tumor growth inhibition at 10^-5 M after 48 hrs by sulforhodamine B assay

[3] = test system: K562; settings: Homo sapiens, 10^-5 M
Description: Cytotoxicity against human K562 cells assessed as tumor growth inhibition at 10^-5 M after 48 hrs by sulforhodamine B assay

[4] = test system: MOLT-4; settings: Homo sapiens, 10^-5 M
Description: Cytotoxicity against human MOLT4 cells assessed as tumor growth inhibition at 10^-5 M after 48 hrs by sulforhodamine B assay

[5] = test system: RPMI-8226; settings: Homo sapiens, 10^-5 M
Description: Cytotoxicity against human RPMI8226 cells assessed as tumor growth inhibition at 10^-5 M after 48 hrs by sulforhodamine B assay

[6] = test system: SR; settings: Homo sapiens, 10^-5 M
Description: Cytotoxicity against human SR cells assessed as tumor growth inhibition at 10^-5 M after 48 hrs by sulforhodamine B assay

[7] = test system: A549; settings: Homo sapiens, 10^-5 M
Description: Cytotoxicity against human A549 cells assessed as tumor growth inhibition at 10^-5 M after 48 hrs by sulforhodamine B assay

[8] = test system: EKVX; settings: Homo sapiens, 10^-5 M
Description: Cytotoxicity against human EKVX cells assessed as tumor growth inhibition at 10^-5 M after 48 hrs by sulforhodamine B assay

[9] = test system: HOP-62; settings: Homo sapiens, 10^-5 M
Description: Cytotoxicity against human HOP62 cells assessed as tumor growth inhibition at 10^-5 M after 48 hrs by sulforhodamine B assay

[10] = test system: HOP-92; settings: Homo sapiens, 10^-5 M
Description: Cytotoxicity against human HOP92 cells assessed as tumor growth inhibition at 10^-5 M after 48 hrs by sulforhodamine B assay

[11] = test system: NCI-H226; settings: Homo sapiens, 10^-5 M
Description: Cytotoxicity against human NCI-H226 cells assessed as tumor growth inhibition at 10^-5 M after 48 hrs by sulforhodamine B assay

[12] = test system: NCI-H23; settings: Homo sapiens, 10^-5 M
Description: Cytotoxicity against human NCI-H23 cells assessed as tumor growth inhibition at 10^-5 M after 48 hrs by sulforhodamine B assay

[13] = test system: NCI-H460; settings: Homo sapiens, 10^-5 M
Description: Cytotoxicity against human NCI-H460 cells assessed as tumor growth inhibition at 10^-5 M after 48 hrs by sulforhodamine B assay

[14] = test system: NCI-H522; settings: Homo sapiens, 10^-5 M
Description: Cytotoxicity against human NCI-H522 cells assessed as tumor growth inhibition at 10^-5 M after 48 hrs by sulforhodamine B assay

[15] = test system: COLO 205; settings: Homo sapiens, 10^-5 M
Description: Cytotoxicity against human COLO205 cells assessed as tumor growth inhibition at 10^-5 M after 48 hrs by sulforhodamine B assay

[16] = test system: HCC 2998; settings: Homo sapiens, 10^-5 M
Description: Cytotoxicity against human HCC2998 cells assessed as tumor growth inhibition at 10^-5 M after 48 hrs by sulforhodamine B assay

[17] = test system: HCT-116; settings: Homo sapiens, 10^-5 M
Description: Cytotoxicity against human HCT116 cells assessed as tumor growth inhibition at 10^-5 M after 48 hrs by sulforhodamine B assay

[18] = test system: HCT-15; settings: Homo sapiens, 10^-5 M
Description: Cytotoxicity against human HCT15 cells assessed as tumor growth inhibition at 10^-5 M after 48 hrs by sulforhodamine B assay

[19] = test system: HT-29; settings: Homo sapiens, 10^-5 M
Description: Cytotoxicity against human HT-29 cells assessed as tumor growth inhibition at 10^-5 M after 48 hrs by sulforhodamine B assay

[20] = test system: KM12; settings: Homo sapiens, 10^-5 M
Description: Cytotoxicity against human KM12 cells assessed as tumor growth inhibition at 10^-5 M after 48 hrs by sulforhodamine B assay

[21] = test system: SW-620; settings: Homo sapiens, 10^-5 M
Description: Cytotoxicity against human SW620 cells assessed as tumor growth inhibition at 10^-5 M after 48 hrs by sulforhodamine B assay

[22] = test system: SF-268; settings: Homo sapiens, 10^-5 M
Description: Cytotoxicity against human SF268 cells assessed as tumor growth inhibition at 10^-5 M after 48 hrs by sulforhodamine B assay

[23] = test system: SF-295; settings: Homo sapiens, 10^-5 M
Description: Cytotoxicity against human SF295 cells assessed as tumor growth inhibition at 10^-5 M after 48 hrs by sulforhodamine B assay

[24] = test system: SF-539; settings: Homo sapiens, 10^-5 M
Description: Cytotoxicity against human SF539 cells assessed as tumor growth inhibition at 10^-5 M after 48 hrs by sulforhodamine B assay

[25] = test system: SNB-19; settings: Homo sapiens, 10^-5 M
Description: Cytotoxicity against human SNB19 cells assessed as tumor growth inhibition at 10^-5 M after 48 hrs by sulforhodamine B assay

[26] = test system: SNB-75; settings: Homo sapiens, 10^-5 M
Description: Cytotoxicity against human SNB75 cells assessed as tumor growth inhibition at 10^-5 M after 48 hrs by sulforhodamine B assay

[27] = test system: U-251; settings: Homo sapiens, 10^-5 M
Description: Cytotoxicity against human U251 cells assessed as tumor growth inhibition at 10^-5 M after 48 hrs by sulforhodamine B assay

[28] = test system: LOX IMVI; settings: Homo sapiens, 10^-5 M
Description: Cytotoxicity against human LOXIMVI cells assessed as tumor growth inhibition at 10^-5 M after 48 hrs by sulforhodamine B assay

[29] = test system: Malme-3M; settings: Homo sapiens, 10^-5 M
Description: Cytotoxicity against human MALME-3M cells assessed as tumor growth inhibition at 10^-5 M after 48 hrs by sulforhodamine B assay

[30] = test system: M14; settings: Homo sapiens, 10^-5 M
Description: Cytotoxicity against human M14 cells assessed as tumor growth inhibition at 10^-5 M after 48 hrs by sulforhodamine B assay

[31] = test system: MDA-MB-435; settings: Homo sapiens, 10^-5 M
Description: Cytotoxicity against human MDA-MB-435 cells assessed as tumor growth inhibition at 10^-5 M after 48 hrs by sulforhodamine B assay

[32] = test system: SK-MEL-2; settings: Homo sapiens, 10^-5 M
Description: Cytotoxicity against human SK-MEL-2 cells assessed as tumor growth inhibition at 10^-5 M after 48 hrs by sulforhodamine B assay

[33] = test system: SK-MEL-28; settings: Homo sapiens, 10^-5 M
Description: Cytotoxicity against human SK-MEL-28 cells assessed as tumor growth inhibition at 10^-5 M after 48 hrs by sulforhodamine B assay

[34] = test system: SK-MEL-5; settings: Homo sapiens, 10^-5 M
Description: Cytotoxicity against human SK-MEL-5 cells assessed as tumor growth inhibition at 10^-5 M after 48 hrs by sulforhodamine B assay

[35] = test system: UACC-257; settings: Homo sapiens, 10^-5 M
Description: Cytotoxicity against human UACC257 cells assessed as tumor growth inhibition at 10^-5 M after 48 hrs by sulforhodamine B assay

[36] = test system: UACC-62; settings: Homo sapiens, 10^-5 M
Description: Cytotoxicity against human UACC62 cells assessed as tumor growth inhibition at 10^-5 M after 48 hrs by sulforhodamine B assay

[37] = test system: IGROV-1; settings: Homo sapiens, 10^-5 M
Description: Cytotoxicity against human IGROV1 cells assessed as tumor growth inhibition at 10^-5 M after 48 hrs by sulforhodamine B assay

[38] = test system: OVCAR-3; settings: Homo sapiens, 10^-5 M
Description: Cytotoxicity against human OVCAR3 cells assessed as tumor growth inhibition at 10^-5 M after 48 hrs by sulforhodamine B assay

[39] = test system: OVCAR-4; settings: Homo sapiens, 10'-5 M
Description: Cytotoxicity against human OVCAR4 cells assessed as tumor growth inhibition at 10^-5 M after 48 hrs by sulforhodamine B assay

[40] = test system: OVCAR-5; settings: Homo sapiens, 10^-5 M
Description: Cytotoxicity against human OVCAR5 cells assessed as tumor growth inhibition at 10^-5 M after 48 hrs by sulforhodamine B assay

[41] = test system: OVCAR-8; settings: Homo sapiens, 10^-5 M
Description: Cytotoxicity against human OVCAR8 cells assessed as tumor growth inhibition at 10^-5 M after 48 hrs by sulforhodamine B assay

[42] = test system: NCI/ADR-RES; settings: Homo sapiens, 10^-5 M
Description: Cytotoxicity against human NCI-ADR-RES cells assessed as tumor growth inhibition at 10^-5 M after 48 hrs by sulforhodamine B assay

[43] = test system: SK-OV-3; settings: Homo sapiens, 10^-5 M
Description: Cytotoxicity against human SKOV3 cells assessed as tumor growth inhibition at 10^-5 M after 48 hrs by sulforhodamine B assay

[44] = test system: 786-0; settings: Homo sapiens, 10^-5 M
Description: Cytotoxicity against human 786-0 cells assessed as tumor growth inhibition at 10^-5 M after 48 hrs by sulforhodamine B assay

[45] = test system: A498; settings: Homo sapiens, 10^-5 M
Description: Cytotoxicity against human A498 cells assessed as tumor growth inhibition at 10^-5 M after 48 hrs by sulforhodamine B assay

[46] = test system: ACHN; settings: Homo sapiens, 10^-5 M
Description: Cytotoxicity against human ACHN cells assessed as tumor growth inhibition at 10^-5 M after 48 hrs by sulforhodamine B assay

[47] = test system: CAKI-1; settings: Homo sapiens, 10^-5 M
Description: Cytotoxicity against human Caki1 cells assessed as tumor growth inhibition at 10^-5 M after 48 hrs by sulforhodamine B assay

[48] = test system: RXF 393; settings: Homo sapiens, 10^-5 M
Description: Cytotoxicity against human RXF393 cells assessed as tumor growth inhibition at 10^-5 M after 48 hrs by sulforhodamine B assay

[49] = test system: SN12C; settings: Homo sapiens, 10^-5 M
Description: Cytotoxicity against human SN12C cells assessed as tumor growth inhibition at 10^-5 M after 48 hrs by sulforhodamine B assay

[50] = test system: TK-10; settings: Homo sapiens, 10^-5 M
Description: Cytotoxicity against human TK10 cells assessed as tumor growth inhibition at 10^-5 M after 48 hrs by sulforhodamine B assay

[51] = test system: UO-31; settings: Homo sapiens, 10^-5 M
Description: Cytotoxicity against human UO31 cells assessed as tumor growth inhibition at 10^-5 M after 48 hrs by sulforhodamine B assay

[52] = test system: PC-3; settings: Homo sapiens, 10^-5 M
Description: Cytotoxicity against human PC3 cells assessed as tumor growth inhibition at 10^-5 M after 48 hrs by sulforhodamine B assay

[53] = test system: DU-145; settings: Homo sapiens, 10^-5 M
Description: Cytotoxicity against human DU145 cells assessed as tumor growth inhibition at 10^-5 M after 48 hrs by sulforhodamine B assay

[54] = test system: MCF7; settings: Homo sapiens, 10^-5 M
Description: Cytotoxicity against human MCF7 cells assessed as tumor growth inhibition at 10^-5 M after 48 hrs by sulforhodamine B assay

[55] = test system: MDA-MB-231; settings: Homo sapiens, 10^-5 M
Description: Cytotoxicity against human MDA-MB-231 cells assessed as tumor growth inhibition at 10^-5 M after 48 hrs by sulforhodamine B assay

[56] = test system: Hs-578T; settings: Homo sapiens, 10^-5 M
Description: Cytotoxicity against human Hs 578T cells assessed as tumor growth inhibition at 10^-5 M after 48 hrs by sulforhodamine B assay

[57] = test system: BT-549; settings: Homo sapiens, 10^-5 M
Description: Cytotoxicity against human BT549 cells assessed as tumor growth inhibition at 10^-5 M after 48 hrs by sulforhodamine B assay

[58] = test system: T47D; settings: Homo sapiens, 10^-5 M
Description: Cytotoxicity against human T47D cells assessed as tumor growth inhibition at 10^-5 M after 48 hrs by sulforhodamine B assay

[59] = test system: MDA-MB-468; settings: Homo sapiens, 10^-5 M
Description: Cytotoxicity against human MDA-MB-468 cells assessed as tumor growth inhibition at 10^-5 M after 48 hrs by sulforhodamine B assay

[60] = target: T1, Dihydrofolate reductase (Homo sapiens, UniProt P00374); assay: Inhibition of human DHFR assessed as conversion of dihydrofolic acid to tetrahydrfolic acid by enzyme immunoassay in presence of NADPH
T1 sequence (P00374 whole entry): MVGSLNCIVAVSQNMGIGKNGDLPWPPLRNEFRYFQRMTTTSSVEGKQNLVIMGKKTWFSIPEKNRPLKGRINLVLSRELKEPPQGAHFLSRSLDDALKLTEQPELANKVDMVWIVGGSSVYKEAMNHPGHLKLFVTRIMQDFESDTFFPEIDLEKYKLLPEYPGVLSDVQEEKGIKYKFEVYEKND

COc1cc(Cc2cnc(N)nc2N)cc(OC)c1OC
TGI [1]: inactive | TGI [2]: inactive | TGI [3]: inactive | TGI [4]: inactive | TGI [5]: inactive | TGI [6]: inactive | TGI [7]: inactive | TGI [8]: inactive | TGI [9]: inactive | TGI [10]: inactive | TGI [11]: inactive | TGI [12]: inactive | TGI [13]: inactive | TGI [14]: inactive | TGI [15]: inactive | TGI [16]: inactive | TGI [17]: inactive | TGI [18]: inactive | TGI [19]: inactive | TGI [20]: inactive | TGI [21]: inactive | TGI [22]: inactive | TGI [23]: inactive | TGI [24]: inactive | TGI [25]: inactive | TGI [26]: inactive | TGI [27]: inactive | TGI [28]: inactive | TGI [29]: inactive | TGI [30]: inactive | TGI [31]: inactive | TGI [32]: inactive | TGI [33]: inactive | TGI [34]: inactive | TGI [35]: inactive | TGI [36]: inactive | TGI [37]: inactive | TGI [38]: inactive | TGI [39]: inactive | TGI [40]: inactive | TGI [41]: inactive | TGI [42]: inactive | TGI [43]: inactive | TGI [44]: inactive | TGI [45]: inactive | TGI [46]: inactive | TGI [47]: inactive | TGI [48]: inactive | TGI [49]: inactive | TGI [50]: inactive | TGI [51]: inactive | TGI [52]: inactive | TGI [53]: inactive | TGI [54]: inactive | TGI [55]: inactive | TGI [56]: inactive | TGI [57]: inactive | TGI [58]: inactive | TGI [59]: inactive

O=C1NC(=S)NC(=O)C1=Cc1cn(CC(O)Cn2cc(C=C3C(=O)NC(=S)NC3=O)c3ccccc32)c2ccccc12
pIC50 [60]: 5.15

O=C1Nc2ccc([N+](=O)[O-])cc2/C1=C/c1cn(CC(O)Cn2cc(/C=C3\C(=O)Nc4ccc([N+](=O)[O-])cc43)c3ccccc32)c2ccccc12 (stereo unspecified)
pIC50 [60]: 6.15
